Assays:
M. avium [1] = assay: Intracellular growth of M. avium in mouse bone marrow-derived macrophages (mBMDM) in vitro, CFU assay; format: cell-based, Mycobacterium avium; conditions: for M. avium growth in mBMDM: L-try (final 66 μg/ml) or M-try (125 μM) alone; for reductions in the anti-mycobacterial ability of ISS treatment: M. avium-infected mBMDM cultured with L-try (66 μg/ml) or M-try (125 μM) supplemented media plus ISS; for % of CFU: 10 μg/ml 72 h prior to infection, day 7, medium alone = 100%
Procedure: A previously studied M. avium strain 13 (Hayashi, et al. (1999) Infect. Immun. 67:3558-3565; Meylan, et al. (1990) Infect. Immun. 58:2564-2568), isolated from an AIDS patient at UCSD, San Diego, Calif., was used in all experiments. The organism was cultured on Middlebrook 7H11 agar (Difco Laboratories, Detroit, Mich.) with OADC enrichment at 37° C. in the presence of 5% CO2 for two weeks. Transparent colonies were selectively picked and further cultured on Middlebrook 7H11 plates for two more weeks. The resulting colonies, which were predominantly transparent (>90%), were then collected and washed two times with phosphate-buffered saline (PBS). The bacteria were finally resuspended in Middlebrook 7H9 broth (Difco Laboratories) and the OD600 of the suspension was adjusted to 0.15-0.2. The suspension was aliquoted and stored at −70° C. until use. The number of organisms/ml of this suspension was determined by the colony forming unit (CFU) assay.
The number of CFU in a given sample was determined by colony counting as described previously (Ogata, et al. (1992) Infect. Immun. 60:4720-4725). Serial 10-fold dilutions of total cell lysates or tissue homogenates were performed in PBS. 10 μl of each dilution were plated on Middlebrook 7H11 plates supplemented with OADC enrichment. The plates were incubated up to 14 days at 37° C. The number of colonies was counted every alternate day from day 10 onwards until no new colonies appeared. This yielded the number of CFU/10 μl. The number of CFU in each well was then calculated.
Preparation of Murine Macrophages. Mouse bone marrow-derived macrophages (mBMDM) were prepared from mouse bone marrow using L-cell conditioned media, as described in Martin-Orozco, et al. (1999) […] 11:1111-1118.
Alternatively, 5×10^4 mBMDM or hMDM was treated with ISS for 3 days before infection. Macrophages treated with M-ODN or with media alone served as controls. After 3 days, the cells were infected for 2 hrs with M. avium at a macrophage:bacteria ratio of 2:1 for mBMDM or of 1:10 for hMDM, and subsequently cultured in fresh media without antibiotics. To examine attachment and/or invasion of M. avium, the macrophages were lysed immediately after washing, and the number of bacteria were enumerated by the CFU assay. Intracellular growth of M. avium was determined on days 1, 3, and 7 after infection. To account for all the mycobacteria in each group, corresponding lysates were combined and then the number of CFU was determined. To examine the efficacy of anti-mycobacterial treatments, CFU recovered from cells treated with medium alone were considered as 100% growth.
To determine whether treatment with ISS after infection alters M. avium growth, adherent cells were first infected with M. avium for 2 hrs and then these cells were cultured with fresh media containing ISS. Infected cells treated with M-ODN or medium alone served as controls. At day 7, intracellular growth of M. avium was assessed by CFU assay.

mBMDM = assay: Viability of mBMDM (trypan-blue exclusion); format: cell-based, mouse
Procedure: To examine whether treatment with ISS can stimulate macrophages to inhibit the growth of M. avium, mBMDM (5×10^4 mBMDM/well) was first treated with ISS or M-ODN for 72 hrs and then infected with M. avium. Then, cellular CFU was counted on days 1, 3, and 7 post-infection (FIG. 9A). By day 7, treatment with ISS inhibited intracellular growth of M. avium in mBMDM by 80% (p<0.001). Since viability of macrophages can affect M. avium growth, the viability of macrophages was assessed by trypan-blue exclusion. […]

M. avium [2] = assay: Growth of M. avium in vivo in C57B1/6 mice, CFU per organ; set-up: species or system Mycobacterium avium
[3] = test system: indoleamine 2,3-dioxygenase (IDO); assay: IDO gene induction in vivo in mice, semi-quantitative RT-PCR; conditions: injection of M-ODN in mice
L. major = conditions: BALB/c mice; injection four hours after inoculation with live L. major promastigotes; cited from earlier work
[4] = C57B1/6 mice, 10^7 CFU i.v., treatment from one week after infection, CLA 200 mg/kg alone, 5 weeks after infection

Cn1cc(CC(N)C(=O)O)c2ccccc21 (racemic) [M-try, 1-methyl-DL-tryptophan]
M. avium growth in mBMDM (M. avium [1]): did not alter
reductions in the anti-mycobacterial ability of ISS treatment (M. avium [1]): 4 fold
viability of mBMDM (mBMDM; L-try (final 66 μg/ml) or M-try (125 μM) alone): did not alter

CC[C@H]1OC(=O)[C@H](C)[C@@H](O[C@H]2C[C@@](C)(OC)[C@@H](O)[C@H](C)O2)[C@H](C)[C@@H](O[C@@H]2O[C@H](C)C[C@H](N(C)C)[C@H]2O)[C@](C)(OC)C[C@@H](C)C(=O)[C@H](C)[C@@H](O)[C@]1(C)O [CLA, Clarithromycin, reference compound]
reduction of bacterial growth in mBMDM (M. avium [1]; mBMDM infected first, then treated, ISS 10 μg/ml, CLA 0.1 μg/ml, 7 days after infection, compared to medium alone): 84%
decrease of bacterial growth in the liver (M. avium [2]; [4]): 4 log
decrease of bacterial growth in the lungs (M. avium [2]; [4]): 1.5 log
decrease of bacterial growth in the spleen (M. avium [2]; [4]): 4 log

5′-TGACTGTGAAGGTTAGAGATGA-3′ (SEQ ID NO:3) (chemistry not given here) [M-ODN, mutated control oligodeoxynucleotide with 2 base alteration of the CpG motif]
% of CFU (M. avium [1]; mBMDM from IFN-αR−/− 129S6/SvEv): 106.9 ± 11.9%
% of CFU (M. avium [1]; mBMDM from IFN-γR−/− 129S6/SvEv): 108.1 ± 10.8%
% of CFU (M. avium [1]; mBMDM from IL-12 p40−/− C57B1/6): 117.6 ± 9.2%
% of CFU (M. avium [1]; mBMDM from INOS−/− C57B1/6): 105.0 ± 13.9%
% of CFU (M. avium [1]; mBMDM from NADPH oxidase−/− (gp91 phox−/−) C57B1/6): 107.0 ± 15.5%
% of CFU (M. avium [1]; mBMDM from TNF-α−/− C57B1/6): 120.0 ± 20.0%
% of CFU (M. avium [1]; mBMDM from Wild type 129S6/SvEV): 110.0 ± 15.9%
% of CFU (M. avium [1]; mBMDM from Wild type C57B1/6): 117.2 ± 18.5%
CFU in the spleen and lungs compared with control (PBS) mice (M. avium [2]; 10^7 organisms/mouse, four weeks after infection): similar
viable mBMDM (mBMDM): > 90%
induction of IDO after injection [3]: did not result in any detectable induction of IDO

N[C@@H](Cc1c[nH]c2ccccc12)C(=O)O [L-try, L-tryptophan]
M. avium growth in mBMDM (M. avium [1]): did not alter
reductions in the anti-mycobacterial ability of ISS treatment (M. avium [1]): 4 fold

CpG-ODN 1826
animals protected from progressive infection (L. major): 65%

— US6552006B2, “Immunomodulatory polynucleotides in treatment of an infection by an intracellular pathogen” (The Regents of the University of California, priority 2000, dated 2003)
